Assay results from patent publication US6107104A, “Modulators of anchoring protein function” (ICOS Corporation, priority 1996, dated 2000).
Blank lines part the entries; values can stand above or below the compound they belong to. Ends that are not written are not given here.

Columns and labels:
[1] = in vivo; cited from earlier work
CaN = target: T1, CaN (Rattus norvegicus, UniProt P63329); assay: CaN phosphatase activity toward 32P RII peptide substrate; assay type: biochemical
T1 construct: made in house; host or cells: Sf9 cells (baculovirus)
Procedure: (§1) To determine whether AKAP 79 peptide binding inhibits CaN activity, CaN phosphatase activity was assayed in the presence of recombinant AKAP 79. Briefly, recombinant AKAP 79 was expressed in E. coli as described in Carr et al., J. Biol. Chem., 267:16816-16823 (1992), incorporated herein by reference. CaN and the constitutively active truncation mutant CaN420 (a truncated, Ca^2+ /calmodulin independent constitutively active form of CaN (Perrino et al., J. Biol. Chem., in press)) were expressed in Sf9 cells and purified on calmodulin-Sepharose as described in Perrino et al., J. Biol Chem., 267:15965-15969 (1992), incorporated herein by reference. Phosphatase activity toward ^32 P RII peptide substrate was measured as described in Perrino et al., supra. CaN (30 nM), calmodulin (100 nM) and ^32 P RII peptide (22 μM) were incubated with AKAP 79 protein and AKAP 79 peptide (SEQ ID NO:1-amino acids 81-102) over the range of concentrations indicated in FIG. 1B. Calmodulin was omitted from CaN420 assays. ^32 P released from the substrate was measured in triplicate samples in three separate experiments by scintillation counting. The inhibition constant (Ki) of recombinant AKAP 79 for CaN was determined by linear regression analysis of data. Ki values for AKAP 79 peptide were estimated by determining the IC50 using a fixed substrate concentration at Km (42 μM).

[2] = following liver transplantation; cited from earlier work
CaN420 = target: T2, CaN420 (Rattus norvegicus, UniProt P63329); assay: CaN420 phosphatase activity toward 32P RII peptide substrate; assay type: biochemical; conditions: calmodulin omitted
T2 construct: a truncated, Ca^2+ /calmodulin independent constitutively active form of CaN; made in house; host or cells: Sf9 cells (baculovirus)
Procedure: as §1

protein phosphatases 2A = assay: Protein phosphatase 2A activity; assay type: biochemical; conditions: peptide concentrations as high as 0.4 mM
protein phosphatases 1 = assay: Protein phosphatase 1 activity; assay type: biochemical; conditions: peptide concentrations as high as 0.4 mM
^32 P-inhibitor 1 = assay: Calcineurin phosphatase assay of reconstituted CaN holo-enzyme; assay type: biochemical; conditions: in association with CaN B, ten minute incubation at room temperature, 33 nM complex
Procedure: The activity of CaN is measured by the Ca^2+ --and calmodulin-dependentrelease of ^32 Pi from ^32 P-inhibitor 1, using the method of Nairn, et al. [Neuroprotocols 6:108-111 (1995)]. Identified chemicals are pre-incubated with 4 or 30 nM CaN before initiation of the reaction with ^32 P-inhibitor 1 (Chemicon). Inhibitor 1 (50 μg) was phosphorylated using the catalytic subunit of PKA and purified according to the procedure described in Nairn, et al., [supra]. Phosphatase activity in the absence of chemicals is defined as 100%.
In order to determine if the mutated CaN A protein retained phosphatase activity, a CaN holo-enzyme was reconstituted. One micromole of purified wild type or mutant CaN A was incubated with equal molar amount of purified CaN B (Chemicon), and calmodulin (Sigma) in 50 mM Hepes, pH 7.5, 1 mM MnCl2, 0.5 mM EDTA, 1 mM DDT, and 2 mg/ml BSA, for 24 hours at 4° C., after which 33 nM of the reconstituted complex was used in a calcineurin phosphatase assay using ^32 P-inhibitor 1 as substrate as described in Example 14.

Compound: N=C(N)NCCCCCCC(=O)NC(O)C(=O)NCCCCNCCCN (centres unmarked) [15-Deoxyspergualin]
effective in refractory kidney rejection [1]: 70-90%

effect on the potency of inhibition of CaN by AKAP 79 (CaN; FK506 2 μM): did not affect
Compound: C=CC[C@@H]1/C=C(\C)C[C@H](C)C[C@H](OC)[C@H]2O[C@@](O)(C(=O)C(=O)N3CCCC[C@H]3C(=O)O[C@H](/C(C)=C/[C@@H]3CC[C@@H](O)[C@H](OC)C3)[C@H](C)[C@@H](O)CC1=O)[C@H](C)C[C@@H]2OC [FK506, reference compound]
patients with moderate to severe neurotoxicity [2]: 10-20%

inhibition of full-length CaN phosphatase activity (CaN; Ca2+/calmodulin dependent CaN 30 nM, 32P RII peptide substrate): inhibited | inhibition of CaN420 phosphatase activity (CaN420): inhibited | effect on activity of protein phosphatase 2A (protein phosphatases 2A): did not significantly affect | effect on activity of protein phosphatase 1 (protein phosphatases 1): did not significantly affect
Compound: RRKRSQSSKEEKP [AKAP 79 peptide]

dephosphorylation of substrate (^32 P-inhibitor 1): 33%
Compound: biotinylated CaN A: endogenously biotinylated rat brain calcineurin A, wild type
